“Also recorded” adds a separate entry of the source.
Experiments:
spleen cells = assay: Spleen cell studies (omission of peptide 223); type: cell-based
[1] = system: peptide-loaded RMA-S HHD cells; assay: Chromium 51 release assay (CTL assay); type: cell-based, mice; settings: effector:target 75:1, 50:1, 25:1; mice immunized with recombinant MAGE-A9 and poly(I:C)
[2] = biological target: MHC class 1 allele A*02:01 (Homo sapiens, UniProt P04439, D140Y/D185E/D98H/E176V/E277Q/G131W/G231S/I119V/I121R/I166T/I218V/L300P/L318F/N151K/N90K/P208A/P217A/Q86G/Q94H/R138H/R169H/T345S); assay: REVEAL binding of HLA-A2 binding peptides; settings: Higher REVEAL score
[3] = system: spleen cells of HLA-B7 transgenic mice immunized with MAGE-A9 full length recombinant protein; assay: IFN-γ ELISPOT, MAGE-A9 immunogenic HLA-B7 peptides; type: cell-based; settings: individual responses per mouse
Method: FIGS. 19A and 19B depict IFN-γ ELISPOT results of 1st experiment for the MAGE-A9 immunogenic HLA-B7 peptides. IFN-γ response induced by HLA-B7 candidate peptides of MAGE-A9 as detected by IFN-γ ELISPOT assay. Two group of 3 and 5 mice were immunized respectively with poly(I:C) alone (as control; bar on the left) and with MAGE-A9 full-length recombinant protein admixed with poly(I:C) (bar on the right). Mice were sacrificed 34 days after 1st immunization and spleen cells were tested in IFN-γ ELISPOT after stimulation with dendritic cells loaded with the individual candidate or control peptides (FIG. 19A) or after direct stimulation with the individual candidate or control peptides (FIG. 19B). DCE: Dendritic cell empty; NS: Non stimulated; B7-Ctrl; irrelevant control HLA-B7 peptide. Student T-test *p<0.05; ** p<0.005; *** p<0.0005; **** p<0.00005. […]
Groups of ten 6-12 weeks-old HLA-A1, HLA-A2/DR1, HLA-A24, HLA-All (as a surrogate for HLA-A3 allele) and HLA-B7 male/female mice were immunized three times s.c. and i.p., 14 days apart, with 30 μg of MAGE-A9 his-tag full-length recombinant protein admixed with 50 μg (s.c.) or 200 μg (i.p.) of Poly(I:C) in a final volume of 100 μl. […] The immune response was measured using IFN-γ ELISPOT assays (BD). Then spots were counted using an ELISPOT counter (CTL Analyzer) and enumerated as number of spot-forming units (SFU) per well. […]

Sequence	impact of omission on immunogenic potential of a final formulation (spleen cells)	CTL response (51Cr-release) [1]	binding to MHC class 1 allele A*02:01 (in words) [2]	IFN-γ response (ELISPOT) [3]
ALSVMGVYV [MAGE-A9 223, MAGE-A9 peptide antigen]	does not significantly impact	elicited a response	high binding	
MPKAALLII [peptide 195]				greatest activity; also recorded: gave an immune response
